Experimental data from patent US7462717B2, “C6-and C9-substituted chromeno[4,3-c]isoxazoline derivatives and their use as anti-depressants” (Janssen Pharmaceutica N.V., priority 2002, dated 2008).

Columns and labels:
hα2B receptor = biological target: T1, hα2B receptor (Homo sapiens, UniProt P18089); experiment: Radioligand binding experiment for α2B-adrenergic receptor ([3H]-raulwolscine); settings: membranes of CHO cells transfected with human α2B receptor; [3H]raulwolscine 1 nM
T1 construct: expressed in transfected cells
T1 sequence (P18089 1-450): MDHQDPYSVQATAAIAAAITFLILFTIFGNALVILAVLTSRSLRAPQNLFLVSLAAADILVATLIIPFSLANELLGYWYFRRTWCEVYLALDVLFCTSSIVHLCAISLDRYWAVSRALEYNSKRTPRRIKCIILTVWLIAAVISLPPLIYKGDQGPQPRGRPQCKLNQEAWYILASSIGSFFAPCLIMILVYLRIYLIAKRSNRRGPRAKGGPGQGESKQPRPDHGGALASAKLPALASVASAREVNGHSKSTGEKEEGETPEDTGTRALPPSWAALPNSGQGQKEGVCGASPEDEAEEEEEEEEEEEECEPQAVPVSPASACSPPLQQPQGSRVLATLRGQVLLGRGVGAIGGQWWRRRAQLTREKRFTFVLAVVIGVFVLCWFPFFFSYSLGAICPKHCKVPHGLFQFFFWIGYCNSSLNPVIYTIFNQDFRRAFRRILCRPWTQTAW
Description: (§1) The interaction of the compounds of Formula (I) with hα2-receptors and h5-HT-transporters was assessed in in vitro radioligand binding experiments. In general, a low concentration of a radioligand with a high binding affinity for a particular receptor or transporter is incubated with a sample of a tissue preparation enriched in a particular receptor or transporter or with a preparation of cells expressing cloned human receptors in a buffered medium. During the incubation, the radioligand binds to the receptor or transporter. When equilibrium of binding is reached, the receptor bound radioactivity is separated from the non-bound radioactivity, and the receptor- or transporter-bound activity is counted. The interaction of the test compounds with the receptor is assessed in competition binding experiments. Various concentrations of the test compound are added to the incubation mixture containing the receptor- or transporter preparation and the radioligand. The test compound in proportion to its binding affinity and its concentration inhibits binding of the radioligand. The radioligand used for hα2A, hα2B and hα2C receptor binding was [^3H]-raulwolscine and for the h5-HT transporter was [^3H]paroxetine.
(§2) CHO cells, stabile transfected with human adrenergic-α2A-, -α2B or α2C receptor cDNA, were cultured in Dulbecco's Modified Eagle's Medium (DMEM)/Nutrient mixture Ham's F12 (ratio 1:1) (Gibco, Gent-Belgium) supplemented with 10% heat inactivated fetal calf serum (Life Technologies, Merelbeke-Belgium) and antibiotics (100 IU/ml penicillin G, 100 μg/ml streptomycin sulphate, 110 μg/ml pyruvic acid and 100 μg/ml L-glutamine). One day before collection, cells were induced with 5 mM sodiumbutyrate. Upon 80-90% of confluence, cells were scraped in phosphate buffered saline without Ca^2+ and Mg^2+ and collected by centrifugation at 1500×g for 10 min. The cells were homogenised in Tris-HCl 50 mM using an Ultraturrax homogenizer and centrifuged for 10 min at 23,500×g. The pellet was washed once by resuspension and rehomogenization and the final pellet was resuspended in Tris-HCl, divided in 1 ml aliquots and stored at −70° C.
(§3) Membranes were thawed and re-homogenized in incubation buffer (glycylglycine 25 mM, pH 8.0). In a total volume of 500 μl, 2-10 μg protein was incubated with [^3H]raulwolscine (NET-722) (New England Nuclear, USA) (1 nM final concentration) with or without competitor for 60 min at 25° C. followed by rapid filtration over GF/B filter using a Filtermate 196 harvester (Packard, Meriden, Conn.). Filters were rinsed extensively with ice-cold rinsing buffer (Tris-HCl 50 mM pH 7.4). Filter-bound radioactivity was determined by scintillation counting in a Topcount (Packard, Meriden, Conn.) and results were expressed as counts per minute (cpm). Non-specific binding was determined in the presence of 1 μM oxymetazoline for hα2A- and hα2B-receptors and 1 μM spiroxatrine for hα2C receptors.
(§4) Data from assays in the presence of compound were calculated as a percentage of total binding measured in the absence of test compound. Inhibition curves, plotting percent of total binding versus the log value of the concentration of the test compound, were automatically generated, and sigmoidal inhibition curves were fitted using non-linear regression. The pIC50 values of test compounds were derived from individual curves. All compounds according to Formula (I) produced an inhibition at least at the hα2A site (but often also at the hα2B and hα2C sites) and simultaneously at the 5-HT transporter site of more than 50% (PIC50) at a test concentration ranging between 10^−6 M and 10^−9 M in a concentration-dependent manner.

hα2A receptor = biological target: T2, hα2A receptor (Homo sapiens, UniProt P08913); experiment: Radioligand binding experiment for α2A-adrenergic receptor ([3H]-raulwolscine); settings: membranes of CHO cells transfected with human α2A receptor; [3H]raulwolscine 1 nM
T2 construct: expressed in transfected cells
T2 sequence (P08913 1-465): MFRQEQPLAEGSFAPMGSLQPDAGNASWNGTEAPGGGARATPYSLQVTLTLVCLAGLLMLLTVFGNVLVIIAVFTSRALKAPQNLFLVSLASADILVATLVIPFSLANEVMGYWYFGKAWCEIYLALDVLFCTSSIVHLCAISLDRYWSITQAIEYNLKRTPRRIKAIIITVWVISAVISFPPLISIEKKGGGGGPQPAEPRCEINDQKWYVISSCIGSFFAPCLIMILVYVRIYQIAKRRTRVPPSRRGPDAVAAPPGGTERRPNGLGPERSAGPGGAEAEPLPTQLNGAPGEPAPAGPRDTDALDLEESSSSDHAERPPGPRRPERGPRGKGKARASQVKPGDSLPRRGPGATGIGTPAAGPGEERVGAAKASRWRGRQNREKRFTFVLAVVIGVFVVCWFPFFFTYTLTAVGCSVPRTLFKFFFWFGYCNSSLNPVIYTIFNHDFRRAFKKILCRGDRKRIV
Description: as §1, §2, §3, §4

h5-HT transporter = biological target: T3, h5-HT transporter (Homo sapiens, UniProt P31645); experiment: Radioligand binding experiment for 5-HT transporter ([3H]paroxetine); settings: human platelet membranes; [3H]paroxetine 0.5 nM; read-out: 5-HTT (converted)
T3 construct: Human platelet membranes (Oceanix Biosciences Corporation, Hanover, Md., USA) were thawed; tissue Oceanix Biosciences Corporation; host or cells: human platelet membranes
T3 sequence (P31645 whole entry): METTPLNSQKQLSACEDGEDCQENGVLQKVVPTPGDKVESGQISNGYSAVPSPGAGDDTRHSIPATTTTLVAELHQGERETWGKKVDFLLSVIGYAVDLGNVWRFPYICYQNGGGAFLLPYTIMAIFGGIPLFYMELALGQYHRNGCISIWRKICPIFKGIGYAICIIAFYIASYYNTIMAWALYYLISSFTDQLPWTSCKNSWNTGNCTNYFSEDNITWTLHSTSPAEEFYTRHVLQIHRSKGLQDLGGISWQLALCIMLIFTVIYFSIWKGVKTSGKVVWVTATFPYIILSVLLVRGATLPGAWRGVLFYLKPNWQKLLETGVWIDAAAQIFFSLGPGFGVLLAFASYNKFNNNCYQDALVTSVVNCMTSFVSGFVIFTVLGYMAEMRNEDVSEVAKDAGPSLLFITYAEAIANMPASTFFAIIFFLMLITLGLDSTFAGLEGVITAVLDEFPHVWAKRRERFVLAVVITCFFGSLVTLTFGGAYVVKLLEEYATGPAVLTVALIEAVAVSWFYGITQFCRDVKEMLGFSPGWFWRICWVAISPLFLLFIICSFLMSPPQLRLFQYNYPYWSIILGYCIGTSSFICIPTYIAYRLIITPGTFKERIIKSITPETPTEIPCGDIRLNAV
Description: as §1
Human platelet membranes (Oceanix Biosciences Corporation, Hanover, Md., USA) were thawed, diluted in buffer (Tris-HCl 50 mM, 120 mM NaCl and 5 mM KCl) and quickly (max 3 s) homogenised with an Ultraturrax homogenizer. In a total volume of 250 μL, 50-100 μg protein was incubated with [^3H]paroxetine (NET-869) (New England Nuclear, USA) (0.5 nM final concentration) with or without competitor for 60 min at 25° C. Incubation was stopped by rapid filtration of the incubation mixture over GF/B filters, pre-wetted with 0.1% polyethyleneamine, using a Filtermate 196 harvester (Packard, Meriden, Conn.). Filters were rinsed extensively with ice-cold buffer and radioactivity on the filters was counted in a Topcount liquid scintillation counter (Packard, Meriden, Conn.). Data were expressed as cpm. Imipramine (at 1 μM final concentration) was used to determine the non-specific binding.
as §4

hα2C receptor = biological target: T4, hα2C receptor (Homo sapiens, UniProt P18825); experiment: Radioligand binding experiment for α2C-adrenergic receptor ([3H]-raulwolscine); settings: membranes of CHO cells transfected with human α2C receptor; [3H]raulwolscine 1 nM
T4 construct: expressed in transfected cells
T4 sequence (P18825 1-462): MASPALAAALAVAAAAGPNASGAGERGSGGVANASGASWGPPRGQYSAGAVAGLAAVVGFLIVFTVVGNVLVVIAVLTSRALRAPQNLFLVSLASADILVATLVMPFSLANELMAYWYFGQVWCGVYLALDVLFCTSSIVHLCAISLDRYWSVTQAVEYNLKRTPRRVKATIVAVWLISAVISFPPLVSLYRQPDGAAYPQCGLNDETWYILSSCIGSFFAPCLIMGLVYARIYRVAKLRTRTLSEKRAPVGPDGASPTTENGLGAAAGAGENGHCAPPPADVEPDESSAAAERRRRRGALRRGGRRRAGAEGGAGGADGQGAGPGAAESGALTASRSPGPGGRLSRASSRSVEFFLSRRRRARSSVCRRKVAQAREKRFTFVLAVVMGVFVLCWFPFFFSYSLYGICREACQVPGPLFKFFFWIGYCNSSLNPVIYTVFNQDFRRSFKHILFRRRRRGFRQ
Description: as §1, §2, §3, §4

IC50 (hα2B receptor) [nM] | IC50 (hα2A receptor) [nM] | IC50 (h5-HT transporter) [nM] | IC50 (hα2C receptor) [nM] | Structure (SMILES)
5.01 | 79.4 | 39.8 | 6.31 | CCNC(=O)OCCOc1cccc2c1OCC1C2=NOC1CN1CCN(CC(C)=Cc2ccccc2)CC1 (centres unmarked) [Compound 10]
2 | 25.1 | 63.1 | 1.26 | CC(=Cc1ccccc1)CN1CCN(CC2ON=C3c4c(O)cccc4OCC32)CC1 (centres unmarked) [Compound 9]
25.1 | 79.4 | 126 | 31.6 | COc1cc2c(c(N3CCC3=O)c1OC)OCC1C2=NOC1CN1CCN(CC(C)=Cc2ccc(F)cc2)CC1 (centres unmarked) [Compound 20]
3.98 | 39.8 | 25.1 | 7.94 | CC(=Cc1ccccc1)CN1CCN(CC2ON=C3c4cccc(NCCN5CCCC5)c4OCC32)CC1 (centres unmarked) [Compound 16]
3.16 | 2.51 | 1000 | 1.26 | COCC(=O)OCCOc1cccc2c1C1=NOC(CN3CCN(CC(C)=Cc4ccccc4)CC3)C1CO2 (centres unmarked) [Compound 14]
50.1 | 63.1 | 126 | 20 | CC(=Cc1ccccc1)CN1CCN(CC2ON=C3c4cccc(NCc5ccccc5)c4OCC32)CC1 (centres unmarked) [Compound 23]
– | 1.58 | 31.6 | 0.398 | COc1cc2c(c(C)c1OC)OC[C@@H]1C2=NO[C@H]1CN1CCN(C/C(C)=C/c2ccccc2)CC1 (single isomer, unassigned) [Compound 3, 7,8-dimethoxy-6-methyl-3-[4-(2-methyl-3-phenyl-allyl)-piperazin-1-ylmethyl]-3a,4-dihydro-3H-chromeno[4,3-c]isoxazole]
6.31 | 63.1 | 10 | 15.8 | CCNC(=O)Nc1cccc2c1OCC1C2=NOC1CN1CCN(CC(C)=Cc2ccccc2)CC1 (centres unmarked) [Compound 17]
25.1 | 100 | 31.6 | 39.8 | COCC(=O)OCCOc1cccc2c1OCC1C2=NOC1CN1CCN(CC(C)=Cc2ccccc2)CC1 (single isomer, unassigned) [Compound 24]
3.98 | 6.31 | 63.1 | 1.26 | CCOC(=O)c1c(OC)c(OC)cc2c1OC[C@@H]1C2=NO[C@H]1CN1CCN(C/C(C)=C/c2ccccc2)CC1 (single isomer, unassigned) [Compound 4, 7,8-dimethoxy-3-[4-(2-methyl-3-phenyl-allyl)-piperazin-1-ylmethyl]-3a,4-dihydro-3H-chromeno[4,3-c]isoxazole-6-carboxylic acid ethyl ester]
2 | 7.94 | 50.1 | 1.58 | COc1cccc2c1OC[C@@H]1C2=NO[C@H]1CN1CCN(C/C(C)=C/c2ccccc2)CC1 (relative stereo) [Compound 6, 6-methoxy-3-[4-(2-methyl-3-phenyl-allyl)-piperazin-1-ylmethyl]-3a,4-dihydro-3H-chromeno[4,3-c]isoxazole]
1.58 | 39.8 | 316 | 2 | COCC(=O)OCCOc1cccc2c1OCC1C2=NOC1CN1CCN(CC(C)=Cc2ccccc2)CC1 (single isomer, unassigned) [Compound 25]
15.8 | 63.1 | 398 | 6.31 | COc1cc2c(c(Nc3ccncc3)c1OC)OC[C@@H]1C2=NO[C@H]1CN1CCN(C/C(C)=C/c2ccc(F)cc2)CC1 (relative stereo) [Compound 21, (3-{4-[3-(4-fluoro-phenyl)-2-methyl-allyl]-piperazin-1-ylmethyl}-7,8-dimethoxy-3a,4-dihydro-3H-chromeno [4,3-c]isoxazol-6-yl)-pyridin-4-yl-amine]
1.58 | 6.31 | 39.8 | 0.794 | COc1cc2c(c(N3CCN(C)CC3)c1OC)OC[C@@H]1C2=NO[C@H]1CN1CCN(C/C(C)=C/c2ccccc2)CC1 (single isomer, unassigned) [Compound 2, 7,8-dimethoxy-3-[4-(2-methyl-3-phenyl-allyl)-piperazin-1-ylmethyl]-6-(4-methyl-piperazin-1-yl)-3a,4-dihydro-3H-chromeno [4,3-c]isoxazole]
2 | 31.6 | 25.1 | 3.98 | CC(=O)Nc1cccc2c1OCC1C2=NOC1CN1CCN(CC(C)=Cc2ccccc2)CC1 (centres unmarked) [Compound 22]
– | 2 | 12.6 | 1 | COc1cc2c(c(Br)c1OC)OCC1C2=NOC1CN1CCN(C/C(C)=C/c2ccccc2)CC1 (centres unmarked) [Compound 1, 6-Bromo-7,8-dimethoxy-3-[4-(2-methyl-3-phenyl-allyl)-piperazin-1-ylmethyl]-3a,4-dihydro-3H-chromeno[4,3-c]isoxazole]
